US6900206B2, “Indole, azaindole and related heterocyclic sulfonylureido piperazine derivatives” (priority 2002, dated 2005)

These molecules were tested on HIV-1 single-round infectious reporter virus (assay: microbe, parasite or virus in culture). Conditions: Human immunodeficiency virus 1, HeLa, 72 h, read-out: EC50 Group from Table 1.
Format: cell-based
Procedure: • Virus production—Human embryonic Kidney cell line, 293T, was propagated in Dulbecco's Modified Eagle Medium (Invitrogen, Carlsbad, Calif.) containing 10% fetal Bovine serum (FBS, Sigma, St. Louis, Mo.). • Virus infection—Human epithelial cell line, HeLa, expressing the HIV-1 receptor CD4 was propagated in Dulbecco's Modified Eagle Medium (Invitrogen, Carlsbad, Calif.) containing 10% fetal Bovine serum (FBS, Sigma, St. Louis, Mo.) and supplemented with 0.2 mg/mL Geneticin (Invitrogen, Carlsbad, Calif.). Virus—Single-round infectious reporter virus was produced by co-transfecting human embryonic Kidney 293 cells with an HIV-1 envelope DNA expression vector and a proviral cDNA containing an envelope deletion mutation and the luciferase reporter gene inserted in place of HIV-1 nef sequences (Chen et al, Ref. 41). Transfections were performed using lipofectAMINE PLUS reagent as described by the manufacturer (Invitrogen, Carlsbad, Calif.). Experiment • 1. HeLa CD4 cells were plated in 96 well plates at a cell density of 1×10^4 cells per well in 100 μl Dulbecco's Modified Eagle Medium containing 10% fetal Bovine serum and incubated overnight. • 2. Compound was added in a 2 μl dimethylsulfoxide solution, so that the final assay concentration would be ≦10 μM. • 3. 100 μl of single-round infectious reporter virus in Dulbecco's Modified Eagle Medium was then added to the plated cells and compound at an approximate multiplicity of infection (MOI) of 0.01, resulting in a final volume of 200 μl per well. • 4. Virally-infected cells were incubated at 37 degrees Celsius, in a CO2 incubator, and harvested 72 h after infection. • 5. Viral infection was monitored by measuring luciferase expression from viral DNA in the infected cells using a luciferase reporter gene assay kit, as described by the manufacturer (Roche Molecular Biochemicals, Indianapolis, Ind.). Infected cell supernatants were removed and 50 μl of lysis buffer was added per well. After 15 minutes, 50 μl of freshly-reconstituted luciferase assay reagent was added per well. Luciferase activity was then quantified by measuring luminescence using a Wallac microbeta scintillation counter. • 6. […] An EC50 provides a method for comparing the antiviral potency of the compounds of this invention. The effective concentration for fifty percent inhibition (EC50) was calculated with the Microsoft Excel Xlfit curve fitting software. For each compound, curves were generated from percent inhibition calculated at 10 different concentrations by using a four paramenter logistic model (model 205). Table 1 is the key for the data in Table 2. Results

For CNC(=O)c1ccc(F)c2c(C(=O)C(=O)N3CCN(S(=O)(=O)N(C)C)CC3)c[nH]c12 [Example 1], which EC50 is on record?
The EC50 was under 1 µM.

Which EC50 does the source give for CNC(=O)c1ccc(F)c2c(C(=O)C(=O)N3CCN(S(=O)(=O)Nc4ccccc4)CC3)c[nH]c12 [Example 2] here?
Its EC50 is 1 to 5 µM.

For CNC(=O)c1ccc(F)c2c(C(=O)C(=O)N3CCN(S(=O)(=O)N4CCOCC4)CC3)c[nH]c12 [Example 3], which EC50 is on record?
The EC50 was over 5 µM.

For CNC(=O)c1ccc(F)c2c(C(=O)C(=O)N3CCN(S(=O)(=O)NC)CC3)c[nH]c12 [Example 4], which EC50 is on record?
The EC50 was over 5 µM.

For COC(=O)c1ccc(F)c2c(C(=O)C(=O)N3CCN(S(=O)(=O)N(C)C)CC3)c[nH]c12 [Example 5], which EC50 is on record?
Its EC50 is over 5 µM.

For COC(=O)c1ccc(F)c2c(C(=O)C(=O)N3CCN(S(=O)(=O)N4CCC4)CC3)c[nH]c12 [Example 6], which EC50 is on record?
Its EC50 is over 5 µM.

How did the EC50 turn out when COC(=O)c1ccc(F)c2c(C(=O)C(=O)N3CCN(S(=O)(=O)N4CCCCC4)CC3)c[nH]c12 [Example 7] was run?
Its EC50 is 1 to 5 µM.

For CCN(CC)S(=O)(=O)N1CCN(C(=O)C(=O)c2c[nH]c3c(C(=O)OC)ccc(F)c23)CC1 [Example 8], which EC50 is on record?
The EC50 was 1 to 5 µM.

Which EC50 does the source give for CNC(=O)c1ccc(F)c2c(C(=O)C(=O)N3CCN(S(=O)(=O)N4CCCCC4)CC3)c[nH]c12 [Example 9] here?
Its EC50 is 1 to 5 µM.

CNC(=O)c1ccc(F)c2c(C(=O)C(=O)N3CCN(S(=O)(=O)N4CCC4)CC3)c[nH]c12 [Example 10] was tested. Which EC50 did it give?
The EC50 was over 5 µM.

Which EC50 does the source give for CCN(CC)S(=O)(=O)N1CCN(C(=O)C(=O)c2c[nH]c3c(C(=O)NC)ccc(F)c23)CC1 [Example 11] here?
The EC50 was 1 to 5 µM.

How did the EC50 turn out when CN(C)S(=O)(=O)N1CCN(C(=O)C(=O)c2c[nH]c3c(-n4cncn4)ncc(F)c23)CC1 [Example 12] was run?
The EC50 was under 1 µM.
